Assay in all cases: Antibacterial spectrum (Minimum Inhibitory Concentration)
Holding throughout (format): cell-based

The subject of one assay is Pr. vulgaris XK Denken. As to conditions: Proteus vulgaris; Pr. vulgaris XK Denken, Gram -; read-out: Minimum Inhibitory Concentration. The text has this:
(§1) The antibacterial tests were done according to the method authorized by the Chemotherapeutic Society of Japan.

Another assay relates to E. coli ATCC 10536. As to conditions: Escherichia coli, ATCC10536; E. coli ATCC 10536, Gram -; read-out: Minimum Inhibitory Concentration.
Text: as §1

The subject of assay [1] is Pseudomonas aeruginosa V-1.
Text: as §1

Another assay deals with Ps. aeruginosa IFO 12689. Conditions: Pseudomonas aeruginosa.
Text: as §1

Assay [2] relates to Klebsiella pneumoniae IFO 3512.
Text: as §1

Assay [3] has as its system Escherichia coli NIHJ JC-2.
Text: as §1

For assay [4], the system named is Proteus vulgaris IFO 3167. As to conditions: IFO3167; Proteus vulgaris IFO 3167, Gram -; read-out: Minimum Inhibitory Concentration.
Text: as §1

For assay [5], the system named is Staphylococcus aureus 209P. As to conditions: Staphylococcus aureus 209P, Gram +; read-out: Minimum Inhibitory Concentration.
Text: as §1

The subject of assay [6] is Bacillus subtilis PCI 219. As to conditions: PCI219; Bacillus subtilis PCI 219, Gram +; read-out: Minimum Inhibitory Concentration.
Text: as §1

For the next assay, the system named is Sta. aureus ATCC 14775. Conditions: Staphylococcus aureus, ATCC14775; Sta. aureus ATCC 14775, Gram +; read-out: Minimum Inhibitory Concentration.
Text: as §1

The mark [7] stands for this setting: V1, Pseudomonas aeruginosa V-1, Gram -, read-out: Minimum Inhibitory Concentration.
Setting [8] is: IFO3512, Klebsiella pneumoniae IFO 3512, Gram -, read-out: Minimum Inhibitory Concentration.
Setting [9] is: NIHJJC2, Escherichia coli NIHJ JC-2, Gram -, read-out: Minimum Inhibitory Concentration.
Where [10] appears, read: IFO12689, Ps. aeruginosa IFO 12689, Gram -, read-out: Minimum Inhibitory Concentration.

The structures appear in SMILES notation. ≈ marks a conversion by molar mass, not a printed value. Read-outs that look alike come from different tables or passages of the source.

Consider `CCN1CCN(c2cc3c(cc2F)c(=O)c(C(=O)O)cn3CC)CC1` [Example 2, 1-ethyl-6-fluoro-7-(4-ethyl-1-piperazinyl)-4-oxo-1,4-dihydroquinoline-3-carboxylic acid], for which the MIC with Pr. vulgaris XK Denken is 0.2 µg/mL (≈ 0.576 µM); with E. coli ATCC 10536 it was 0.1 µg/mL (≈ 0.288 µM); in assay [1] (setting [7]) it was 3.13 µg/mL (≈ 9.01 µM); with Ps. aeruginosa IFO 12689 (IFO12689, read-out: Minimum Inhibitory Concentration), 6.25 µg/mL (≈ 18 µM); in assay [2] (setting [8]) it was less than 0.025 µg/mL; in [3] (setting [9]), 0.1 µg/mL (≈ 0.288 µM). In addition, the MIC in assay [4] worked out at 0.2 µg/mL (≈ 0.576 µM).
For `CCn1cc(C(=O)O)c(=O)c2cc(Cl)c(N3CCN(C)CC3)cc21` [Example 9, 1-ethyl-6-chloro-7-(4-methyl-1-piperazinyl)-4-oxo-1,4-dihydro-quinoline-3-carboxylic acid], the MIC in the assay with Pr. vulgaris XK Denken is 0.78 µg/mL (≈ 2.23 µM); with E. coli ATCC 10536, 0.78 µg/mL (≈ 2.23 µM); in [1] (setting [7]), 25 µg/mL (≈ 71.5 µM); in [5] it was 1.56 µg/mL (≈ 4.46 µM); in the assay with Ps. aeruginosa IFO 12689 (setting [10]) it was 50 µg/mL (≈ 143 µM); in assay [2] (Klebsiella pneumoniae, IFO3512, read-out: Minimum Inhibitory Concentration) it was less than 0.2 µg/mL. The MIC came out at 1.56 µg/mL (≈ 4.46 µM) in assay [3] (setting [9]), 0.78 µg/mL (≈ 2.23 µM) in assay [4] and 0.78 µg/mL (≈ 2.23 µM) in assay [6].
With `CCN1CCN(c2cc3c(cc2Cl)c(=O)c(C(=O)O)cn3CC)CC1` [Example 10, 1-ethyl-6-chloro-7-(4-ethyl-1-piperazinyl)-4-oxo-1,4-dihydroquinoline-3-carboxylic acid], the MIC in the assay with Pr. vulgaris XK Denken is 1.56 µg/mL (≈ 4.29 µM); in the assay on E. coli ATCC 10536, 0.78 µg/mL (≈ 2.14 µM); in [1] (setting [7]), 50 µg/mL (≈ 137 µM); in [5], 0.78 µg/mL (≈ 2.14 µM); in the assay with Ps. aeruginosa IFO 12689 (setting [10]), more than 100 µg/mL; in assay [2] (setting [8]), less than 0.2 µg/mL. For the same compound, the results for the MIC in [3] (setting [9]), in [4] and in assay [6] were 1.56 µg/mL (≈ 4.29 µM), 1.56 µg/mL (≈ 4.29 µM) and 0.78 µg/mL (≈ 2.14 µM), respectively.
For the compound `CCn1cc(C(=O)O)c(=O)c2cc(Cl)c(N3CCN(Cc4ccccc4)CC3)cc21` [Example 11, 1-ethyl-6-chloro-7-(4-benzyl-1-piperazinyl)-4-oxo-1,4-dihydroquinoline-3-carboxylic acid], the MIC with Pr. vulgaris XK Denken is 50 µg/mL (≈ 117 µM); in the assay with E. coli ATCC 10536, 25 µg/mL (≈ 58.7 µM); in [1] (Pseudomonas aeruginosa, V1, read-out: Minimum Inhibitory Concentration), more than 100 µg/mL; in [5], 3.13 µg/mL (≈ 7.35 µM); with Ps. aeruginosa IFO 12689 (setting [10]), more than 100 µg/mL; in [2] (setting [8]), 0.78 µg/mL (≈ 1.83 µM). Besides, the MIC is 100 µg/mL (≈ 235 µM) in [3] (setting [9]), 100 µg/mL (≈ 235 µM) in [4] and 1.56 µg/mL (≈ 3.66 µM) in assay [6].
Take `CCn1cc(C(=O)O)c(=O)c2cc(Cl)c(N3CCN(C(=O)C(F)(F)F)CC3)cc21` [Example 12, 1-ethyl-6-chloro-7-(4-trifluoroacetyl-1-piperazinyl)-4-oxo-1,4-dihydroquinoline-3-carboxylic acid]: the MIC with Pr. vulgaris XK Denken was determined as 0.78 µg/mL (≈ 1.81 µM); in the assay with E. coli ATCC 10536, 0.78 µg/mL (≈ 1.81 µM); in assay [1] (setting [7]), 25 µg/mL (≈ 57.9 µM); in [5] it was 1.56 µg/mL (≈ 3.61 µM); in the assay with Ps. aeruginosa IFO 12689 (setting [10]), 50 µg/mL (≈ 116 µM); in [2] (setting [8]), 0.78 µg/mL (≈ 1.81 µM). For the same compound, the MIC in [3] (Escherichia coli, NIHJJC2, read-out: Minimum Inhibitory Concentration) was determined as 3.13 µg/mL (≈ 7.25 µM); in assay [4], 0.78 µg/mL (≈ 1.81 µM); in assay [6], 0.78 µg/mL (≈ 1.81 µM).
Regarding `CCn1cc(C(=O)O)c(=O)c2cc(Cl)c(N3CCN(C4OC(=O)c5ccccc54)CC3)cc21` (centres unmarked) [Example 15, 1-ethyl-6-chloro-7-(4-phthalidyl-1-piperazinyl)-4-oxo-1,4-dihydroquinoline-3-carboxylic acid], the MIC with Pr. vulgaris XK Denken was 0.39 µg/mL (≈ 0.833 µM); in the assay on E. coli ATCC 10536, 0.2 µg/mL (≈ 0.427 µM); in [1] (setting [7]), 6.25 µg/mL (≈ 13.4 µM); in assay [5] it was 1.56 µg/mL (≈ 3.33 µM); in the assay on Ps. aeruginosa IFO 12689 (setting [10]), 12.5 µg/mL (≈ 26.7 µM); in [2] (setting [8]) it was 0.78 µg/mL (≈ 1.67 µM). Besides, the MIC came out at 0.2 µg/mL (≈ 0.427 µM) in [3] (setting [9]), 0.39 µg/mL (≈ 0.833 µM) in [4] and 0.78 µg/mL (≈ 1.67 µM) in assay [6].
On to `CCn1cc(C(=O)O)c(=O)c2ccc(N3CCNCC3)c(F)c21` [Example 16, 1-ethyl-7-(1-piperazinyl)-8-fluoro-4-oxo-1,4-dihydroquinoline-3-carboxylicacid hydrochloric], for which the MIC turned out to be 25 µg/mL (≈ 78.3 µM) with Sta. aureus ATCC 14775; 1.56 µg/mL (≈ 4.89 µM) in the assay with Pr. vulgaris XK Denken; 0.78 µg/mL (≈ 2.44 µM) in the assay with E. coli ATCC 10536; 1.56 µg/mL (≈ 4.89 µM) in assay [1] (setting [7]); 12.5 µg/mL (≈ 39.1 µM) in assay [5]; 12.5 µg/mL (≈ 39.1 µM) in the assay with Ps. aeruginosa IFO 12689 (setting [10]). Moreover, the MIC in assay [2] (setting [8]) was found to be 0.2 µg/mL (≈ 0.626 µM); in [3] (setting [9]), 0.78 µg/mL (≈ 2.44 µM); in assay [4] it was 0.78 µg/mL (≈ 2.44 µM); in assay [6], 3.13 µg/mL (≈ 9.8 µM).

For the origin of these results see US4448962A, “Substituted quinoline carboxylic acid derivatives” (Kyorin Seiyaku Kabushiki Kaisha, priority 1978, dated 1984).
